The IC50 is the concentration at which inhibition is half-maximal. A high value points to a need for much substance. In general, half-life refers to the time in which the quantity being followed falls by half. High values mean slow loss, low ones fast loss. A word on the MIC: it is the lowest concentration found to suppress growth. Read a low MIC as a more susceptible organism. For orientation: MBC means the lowest tested concentration that kills the bacteria rather than only halting them. Read a high MBC as weaker bactericidal potency.

In data set [1] the test system is human erythrocytes. The settings on record: natural panusin; cited from earlier work. The text has this: Panusin, isolated from hemocytes of the spiny lobster Panulirus argus (PaD), is representative of those invertebrate peptides, which are related to mammalian β-defensins. PaD is comprised of 39 amino acid residues that fold into a well-described cysteine-stabilized αβ (CSαβ) motif, consisting of an α-helix and three antiparallel […]. These […] are strongly stabilized by three disulfide bonds. […] These properties mark it a ...

The nature of data set [2]: MTT cytotoxicity assay. It is filed as cell-based. Particulars: human. As for the experimental part: MRC-5 cells were cultured in Eagle’s minimum essential medium (MEMα), supplemented with 10% (v/v) fetal bovine serum (FBS) and a 1% penicillin (100 IU/mL)/streptomycin (100 μg/mL) solution, and maintained at 37 °C in a humidified atmosphere with 5% CO2. After cells were grown, they were seeded into 96-well plates at 3 × 10^4 cells/well and cultured overnight to adhere to the plate. Subsequently, adherent cells were incubated for 4 h under standard conditions (5% CO2, 37 °C) with 2-fold serial dilutions of each peptide in a 1.56–200 μM concentration range. Following incubation, the peptide-containing medium was replaced with MEM supplemented with FBS and 3-(4,5-dimethylthiazol-2-yl)-2,5 diphenyltetrazolium bromide (MTT) at 0.4 mg/mL, and the cells were further incubated for 120 min. Formazan crystals in live cells were detected after disruption with 200 μL of DMSO by OD measurement at 570 nm in a Tecan microplate reader. […] Data are the average of three independent replicates.

Data set [3] in a line: in vitro. The settings on record: human, human serum (50% v/v in water), t1/2 values, proteolysis in human serum, 37 °C, 24 h incubation.
Description: Peptide samples (500 μL, 500 μM in H2O) were mixed and incubated with 500 μL of human serum (Sigma-Aldrich, St. Louis, MO, USA) for 24 h at 37 °C. Aliquots (120 μL) were taken at 0, 30, 120, 360, 720, and 1440 min and treated with 20 μL of trichloroacetic acid (15% (v/v) in H2O). The suspension was centrifuged for 30 min at 13,000 rpm, 4 °C, and the supernatant was analyzed by RP-HPLC as described above. The unaltered peptide was determined by RP-HPLC peak integration, expressed as the percent of the amount at t0, and data were fitted to a one-phase exponential decay model using GraphPad Prism 8.01 to estimate half-life time (t1/2). Results are the average of three independent runs.
The subject of data set [4] is Pseudomonas aeruginosa. As for the experimental part: (§1) Antimicrobial activities of both PaD and Ct_PaD were determined in a modified microdilution assay as described previously for other β-defensins such as peptides. The assay was performed in sterile polypropylene 96-well plates that prevent peptide binding (Greiner, Frickenhausen, Germany). From a bacterial isolate, a single colony was seeded in Mueller Hinton Broth (MHB, Condalab, Torrejón de Ardoz, Spain) and allowed to grow at 37 °C in an incubator with orbital shaking at 250 rpm overnight. Subsequently, a new bacterial culture was seeded from the overnight culture and allowed to grow to an OD of 0.5 at 600 nm. The bacterial suspension was diluted to a final concentration of 5 × 10^5 CFU (colony formation unit)/mL in sterile 10 mM phosphate buffer (PB: 2.46 mM NaH2PO4, 7.5 mM Na2HPO4, pH 7.4), used as the working culture. Next, 50 μL of 2-fold serial dilutions of each peptide in PB were placed on the plates to provide a final 0.097–100 µM concentration range after which 50 μL of working culture was applied to each well. The plate was first incubated for 2 h at 37 °C, then 100 μL of MHB 2× was added to each well and was incubated at 37 °C overnight with shaking. The growth of bacteria was measured by the optical density at 600 nm in a microplate reader (Tecan, Männedorf, Switzerland). The minimum inhibitory concentration (MIC) was defined as the minimum peptide concentration in which the microorganism is unable to grow. The results are the average of three independent studies. […] MBC was defined for each peptide as the lowest concentration with no bacterial growth detected.

Data set [5] concerns Micrococcus luteus. How it is done:
as §1

Data set [6] relates to Enterococcus faecium. How it is done:
as §1

For data set [7], the system named is Acinetobacter baumannii. How it is done:
as §1

Data set [8] relates to Escherichia coli. As for the experimental part:
as §1

The subject of data set [9] is Staphylococcus aureus. As for the experimental part:
as §1

For data set [10], the system named is horse red blood cells. The experiment in a line: Hemolytic activity (hemoglobin release). Particulars: pH 7.4. As for the experimental part: Both peptides were tested for hemolytic activity on horse red blood cells (RBCs), as described earlier. Briefly, fresh RBCs in PBS (pH 7.4) were first centrifuged 3 × 1500× g for 5 min, then diluted 1:10 with PBS to yield an RBC concentration of ~5 × 10^8 cells/mL. RBCs were then incubated for 1 h at 37 °C with 2-fold serial dilutions of PaD or Ct_PaD covering a 0.24–250 μM concentration range. Next, 0.1% TritonX100 and PBS were used as positive and negative controls, respectively. After incubation, samples were centrifuged at 1500× g for 10 min at room temperature and the supernatant (60 μL) was transferred to a flat-bottomed 96-well polypropylene microplate (Greiner, Frickenhausen, Germany). Hemoglobin release was then measured as OD at 540 nm in a VICTOR3 microplate reader (Perkin Elmer, Waltham, MA, USA). Percent hemolysis was calculated as indicated below (Equation (1)).

Molecules are shown by their SMILES. ≈ marks a conversion by molar mass, not a printed value. Bridge positions count the residues as written; N and C are the ends. Peptide text beside a SMILES is read from it.

As to `CC(C)C[C@@H]1NC(=O)[C@H](CCCNC(=N)N)NC(=O)[C@H](CC(N)=O)NC(=O)CNC(=O)[C@H](Cc2ccc(O)cc2)NC(=O)[C@@H]2CCCN2C(=O)[C@@H]2CSSC[C@@H](C(=O)N[C@@H](CCCNC(=N)N)C(=O)N[C@@H](CCCNC(=N)N)C(=O)N[C@@H](CO)C(=O)N[C@@H](Cc3ccc(O)cc3)C(N)=O)NC(=O)[C@@H]3CSSC[C@H](NC(=O)[C@H](CC(=O)O)NC(=O)CNC(=O)[C@@H](NC(=O)[C@H](Cc4ccc(O)cc4)NC(=O)[C@@H](N)CO)C(C)C)C(=O)NCC(=O)N[C@@H](CO)C(=O)N[C@@H](CC(N)=O)C(=O)NCC(=O)NCC(=O)N[C@@H](CO)C(=O)N[C@@H](CSSC[C@H](NC(=O)[C@H](Cc4ccccc4)NC(=O)[C@H](Cc4ccc(O)cc4)NC(=O)[C@H](CC(N)=O)NC1=O)C(=O)N1CCC[C@H]1C(=O)N[C@@H](CC(C)C)C(=O)NCC(=O)N[C@@H](CCCNC(=N)N)C(=O)N[C@@H]([C@@H](C)O)C(=O)N3)C(=O)N[C@@H](C(C)C)C(=O)N[C@@H](CO)C(=O)N[C@@H](CO)C(=O)N[C@@H](Cc1ccc(O)cc1)C(=O)N2` [PaD] (H-SYVGDCGSNGGSCVSSYCPYGNRLNYFCPLGRTCCRRSY-NH2; disulfide 6-34, 13-28, 18-35), the “Hemolytic effect on human erythrocytes” value in data set [1] is reported as “no hemolytic effect”. The molecule also came in with an IC50 at 4 h in data set [2] of 145 ± 1.7 µM. In addition, in [3], the half-life at 250 µM was > 24 h. In addition, the MIC in data set [4] (2 h, pH 7.4) was determined as 25 µM (≈ 106 µg/mL); in data set [5] (2 h, pH 7.4), 12.5 µM (≈ 53.2 µg/mL); in [6] (2 h, pH 7.4) it was 25 µM (≈ 106 µg/mL); in [7] (2 h, pH 7.4), 25 µM (≈ 106 µg/mL); in data set [8] (2 h, pH 7.4), 12.5 µM (≈ 53.2 µg/mL); in data set [9] (2 h, pH 7.4) it was 25 µM (≈ 106 µg/mL). In addition, the MBC in data set [4] (24 h) came out at 25 µM (≈ 106 µg/mL); in data set [5] (24 h) it was 12.5 µM (≈ 53.2 µg/mL); in [6] (24 h), 25 µM (≈ 106 µg/mL); in data set [7] (24 h), 25 µM (≈ 106 µg/mL); in data set [8] (24 h) it was 12.5 µM (≈ 53.2 µg/mL); in data set [9] (24 h), 25 µM (≈ 106 µg/mL). The “Hemolysis % (250 µM peptide)” value in data set [10] worked out at 0.6 ± 0.02%.
